Common to all, as to assay: NCI-60 cell line screen, 48 h
Assay [1] relates to UACC-62 melanoma.
Assay [2] deals with U251 CNS.
Assay [3] concerns SK-OV-3 ovarian.
Assay [4] deals with SK-MEL-5 melanoma.
Assay [5] relates to NCI-H522 lung.
Assay [6] has as its system A549 NSCLC.
The test system of assay [7] is HOP-92 NSCLC.
In assay [8] the test system is KM12 colon.
Assay [9] deals with HL-60(TB) leukemia.
Assay [10] deals with EKVX NSCLC.
The test system of assay [11] is OVCAR-8 ovarian.
Assay [12] relates to SF-539 CNS.
For assay [13], the system named is SNB-19 CNS.
The subject of assay [14] is HCC-2998 colon.
Assay [15] deals with KM20L2 colon.
Assay [16] concerns HS 578T breast.
Assay [17] concerns SK-MEL-28 melanoma.
Assay [18] deals with CAKI-1 renal.
Assay [19] deals with NCI-H460 lung.
For assay [20], the system named is DU-145 prostate.

Molecules are shown by their SMILES.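 The compound was tested at five concentrations on cells cultured in 96-well plates, with a 48-hour exposure period. TGI marks complete inhibition of growth.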

For `COC1=C(OC)C(=O)c2cc(C)c(=O)c(C)cc2C1=O`, the TGI was found to be 27.7 µM in assay [1]; 31 µM in [2]; 41.8 µM in [3]; 29.3 µM in assay [4]; 32.2 µM in assay [5]; 38 µM in assay [6]. Further, the TGI in assay [7] was 30.4 µM; in assay [8], 36.6 µM; in assay [9], 8.9 µM; in [10], 31.5 µM; in assay [11] it was 35.7 µM; in assay [12] it was 33.1 µM. Further, the TGI in assay [13] was found to be 37.6 µM; in [14], 55.1 µM; in [15], 40 µM; in [16], 63.8 µM; in assay [17], 31 µM; in assay [18], 31.7 µM. The TGI in assay [19] was determined as 48.5 µM; in assay [20] it was 32.6 µM.

In the case of `CSC(SC)=C1Sc2cccc(Cl)c2S1`, the TGI in assay [1] is over 100 µM; in assay [2], over 100 µM; in [3], over 100 µM; in assay [4] it was over 100 µM; in assay [5] it was 63.8 µM; in [6], over 100 µM. Further, the TGI in assay [7] is 65.8 µM; in assay [8], over 100 µM; in assay [9], 45.9 µM; in [10], over 100 µM; in [11], over 100 µM; in assay [12], over 100 µM. The TGI in assay [13] is over 100 µM; in [14], 44.9 µM; in assay [15], over 100 µM; in [17], over 100 µM; in [18] it was over 100 µM; in assay [19] it was over 100 µM.

The values above are taken from PubChem BioAssay (NCI).
